The results in this text go back to BindingDB's records for doi:10.1021/jm970338c (University of Grenoble, 1998).

A value given as a limit tells only on which side of the number the result lay.

In this assay the target is Beta-2 adrenergic receptor (Rattus norvegicus) (UniProt P10608). Description: Inhibition of beta-2 adrenergic receptor isolated from rat lung homogenates.
Beta-2 adrenergic receptor (Rattus norvegicus), sequence (P10608 whole entry, looked up): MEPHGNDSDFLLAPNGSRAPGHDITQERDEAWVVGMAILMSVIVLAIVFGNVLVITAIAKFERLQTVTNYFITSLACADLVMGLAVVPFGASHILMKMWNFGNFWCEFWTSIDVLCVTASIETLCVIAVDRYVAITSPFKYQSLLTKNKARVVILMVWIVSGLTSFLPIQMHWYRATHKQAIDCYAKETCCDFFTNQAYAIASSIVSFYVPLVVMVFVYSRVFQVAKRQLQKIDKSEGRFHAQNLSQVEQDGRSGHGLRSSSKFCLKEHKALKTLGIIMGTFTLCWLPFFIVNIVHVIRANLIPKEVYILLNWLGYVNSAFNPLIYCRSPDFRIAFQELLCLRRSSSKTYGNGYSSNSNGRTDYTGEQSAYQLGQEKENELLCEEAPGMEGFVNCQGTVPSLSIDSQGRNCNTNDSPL

Regarding `CCOC(=O)c1ccc(NCC(O)CON=C(C2CC2)C2CC2)cc1` (stereo unspecified) [4-(3-Dicyclopropylmethyleneaminooxy-2-hydroxy-propylamino)-benzoic acid ethyl ester], the IC50 (commonly the concentration that gives 50% inhibition) was over 10 µM.
As for `O=C(O)c1ccc(NCC(O)CON=C(C2CC2)C2CC2)cc1` (stereo unspecified) [4-(3-Dicyclopropylmethyleneaminooxy-2-hydroxy-propylamino)-benzoic acid], the figure is over 10 µM.
On to `Cc1cccc(NCC(O)CON=C(C2CC2)C2CC2)c1` (stereo unspecified) [Dicyclopropyl-methanone O-(2-hydroxy-3-m-tolylamino-propyl)-oxime], for which the IC50 is over 10 µM.
Compound `Cc1ccccc1NCC(O)CON=C(C1CC1)C1CC1` (stereo unspecified) [Dicyclopropyl-methanone O-(2-hydroxy-3-o-tolylamino-propyl)-oxime] gave an IC50 of over 10 µM.
In the case of `Cc1ccc(NCC(O)CON=C(C2CC2)C2CC2)cc1` (stereo unspecified) [Dicyclopropyl-methanone O-(2-hydroxy-3-p-tolylamino-propyl)-oxime], the concentration for half-maximal inhibition (IC50) was over 10 µM.
In turn, `CC(C)(Cc1ccc(NCC(O)CON=C(C2CC2)C2CC2)cc1)NCC(O)CON=C(C1CC1)C1CC1` (stereo unspecified) [Dicyclopropyl-methanone O-(3-{2-[4-(3-dicyclopropylmethyleneaminooxy-2-hydroxy-propylamino)-phenyl]-1,1-dimethyl-ethylamino}-2-hydroxy-propyl)-oxime] came in with a concentration for half-maximal inhibition (IC50) of 1.5 µM.
`OC(CNc1ccccc1I)CON=C(C1CC1)C1CC1` (stereo unspecified) [Dicyclopropyl-methanone O-[2-hydroxy-3-(2-iodo-phenylamino)-propyl]-oxime] yielded an IC50 of over 10 µM.
`OC(CNc1cccc(I)c1)CON=C(C1CC1)C1CC1` (stereo unspecified) [Dicyclopropyl-methanone O-[2-hydroxy-3-(3-iodo-phenylamino)-propyl]-oxime] gave an IC50 of over 10 µM.
Compound `Oc1ccc(NCC(O)CON=C(C2CC2)C2CC2)cc1` (stereo unspecified) [Dicyclopropyl-methanone O-[2-hydroxy-3-(4-hydroxy-phenylamino)-propyl]-oxime] came in with an IC50 of over 10 µM.
As for `OC(CNc1ccc(I)cc1)CON=C(C1CC1)C1CC1` (stereo unspecified) [Dicyclopropyl-methanone O-[2-hydroxy-3-(4-iodo-phenylamino)-propyl]-oxime], the figure is over 10 µM; as for `Cc1ccnc(NCC(O)CON=C(C2CC2)C2CC2)c1` (stereo unspecified) [Dicyclopropyl-methanone O-[2-hydroxy-3-(4-methyl-pyridin-2-ylamino)-propyl]-oxime], over 10 µM; as for `O=[N+]([O-])c1ccc(NCC(O)CO[N-][C+](C2CC2)C2CC2)cc1` (stereo unspecified) [Dicyclopropyl-methanone O-[2-hydroxy-3-(4-nitro-phenylamino)-propyl]-oxime], over 10 µM.
As for `OC(CNc1ccc(C(F)(F)F)cc1)CON=C(C1CC1)C1CC1` (stereo unspecified) [Dicyclopropyl-methanone O-[2-hydroxy-3-(4-trifluoromethyl-phenylamino)-propyl]-oxime], the figure is over 10 µM; as for `Cc1ccc(NCC(O)CON=C(C2CC2)C2CC2)nc1` (stereo unspecified) [Dicyclopropyl-methanone O-[2-hydroxy-3-(5-methyl-pyridin-2-ylamino)-propyl]-oxime], over 10 µM.
For `Cc1cccc(NCC(O)CON=C(C2CC2)C2CC2)n1` (stereo unspecified) [Dicyclopropyl-methanone O-[2-hydroxy-3-(6-methyl-pyridin-2-ylamino)-propyl]-oxime] the value was over 10 µM; for `CN(CC(O)CON=C(C1CC1)C1CC1)c1ccccc1` (stereo unspecified) [Dicyclopropyl-methanone O-[2-hydroxy-3-(methyl-phenyl-amino)-propyl]-oxime], over 10 µM.
Take `OC(CNc1ccccn1)CON=C(C1CC1)C1CC1` (stereo unspecified) [Dicyclopropyl-methanone O-[2-hydroxy-3-(pyridin-2-ylamino)-propyl]-oxime]: the concentration for half-maximal inhibition (IC50) is over 10 µM.
Regarding `OC(CNc1ccncc1)CON=C(C1CC1)C1CC1` (stereo unspecified) [Dicyclopropyl-methanone O-[2-hydroxy-3-(pyridin-4-ylamino)-propyl]-oxime], the IC50 was over 10 µM.
As for `OC(CNc1nc2ccccc2[nH]1)CON=C(C1CC1)C1CC1` (stereo unspecified) [Dicyclopropyl-methanone O-[3-(1H-benzoimidazol-2-ylamino)-2-hydroxy-propyl]-oxime], the IC50 was over 10 µM.
As for `OC(CNc1ccc(Br)cc1)CON=C(C1CC1)C1CC1` (stereo unspecified) [Dicyclopropyl-methanone O-[3-(4-bromo-phenylamino)-2-hydroxy-propyl]-oxime], the figure is over 10 µM.
`CCCCc1ccc(NCC(O)CON=C(C2CC2)C2CC2)cc1` (stereo unspecified) [Dicyclopropyl-methanone O-[3-(4-butyl-phenylamino)-2-hydroxy-propyl]-oxime] showed an IC50 of over 10 µM.
`OC(CNc1ccc(Cl)cc1)CON=C(C1CC1)C1CC1` (stereo unspecified) [Dicyclopropyl-methanone O-[3-(4-chloro-phenylamino)-2-hydroxy-propyl]-oxime] gave a half-inhibitory concentration (IC50) of over 10 µM.
For `OC(CNc1ccc(F)cc1)CON=C(C1CC1)C1CC1` (stereo unspecified) [Dicyclopropyl-methanone O-[3-(4-fluoro-phenylamino)-2-hydroxy-propyl]-oxime] the value was over 10 µM; for `CC(C)(C)c1ccc(NCC(O)CON=C(C2CC2)C2CC2)cc1` (stereo unspecified) [Dicyclopropyl-methanone O-[3-(4-tert-butyl-phenylamino)-2-hydroxy-propyl]-oxime], over 10 µM.
Regarding `OC(CNc1nc2ccccc2s1)CON=C(C1CC1)C1CC1` (stereo unspecified) [Dicyclopropyl-methanone O-[3-(benzothiazol-2-ylamino)-2-hydroxy-propyl]-oxime], the IC50 is over 10 µM.
`OC(CNc1ccccc1-c1ccccc1)CON=C(C1CC1)C1CC1` (stereo unspecified) [Dicyclopropyl-methanone O-[3-(biphenyl-2-ylamino)-2-hydroxy-propyl]-oxime] returned a half-maximal inhibitory concentration (IC50) of over 10 µM.
Consider `OC(CNc1ccc(-c2ccccc2)cc1)CON=C(C1CC1)C1CC1` (stereo unspecified) [Dicyclopropyl-methanone O-[3-(biphenyl-4-ylamino)-2-hydroxy-propyl]-oxime], for which the IC50 is over 10 µM.
Compound `CC(C)(Cc1ccc(NCC(O)CO[N-][C+](C2CC2)C2CC2)cc1)[N+](=O)[O-]` (stereo unspecified) [Dicyclopropyl-methanone O-{2-hydroxy-3-[4-(2-methyl-2-nitro-propyl)-phenylamino]-propyl}-oxime] came in with a 50% inhibitory concentration (IC50) of over 10 µM.
For `CC(C)(Cc1ccc(N)cc1)NCC(O)CON=C(C1CC1)C1CC1` (stereo unspecified) [Dicyclopropyl-methanone O-{3-[2-(4-amino-phenyl)-1,1-dimethyl-ethylamino]-2-hydroxy-propyl}-oxime], the concentration for half-maximal inhibition (IC50) amounted to 2 µM.
For the compound `CC(C)(N)Cc1ccc(NCC(O)CON=C(C2CC2)C2CC2)cc1` (stereo unspecified) [Dicyclopropyl-methanone O-{3-[4-(2-amino-2-methyl-propyl)-phenylamino]-2-hydroxy-propyl}-oxime], the IC50 was over 10 µM.
In turn, `OC(CNc1ccccc1)CON=C(C1CC1)C1CC1` (stereo unspecified) [Dicyclopropylmethanone O-(3-anilino-2-hydroxypropyl)oxime] registered an IC50 of over 10 µM.
